In patent US20190322676A1, “CERAMIDE GALACTOSYLTRANSFERASE INHIBITORS FOR THE TREATMENT OF DISEASE” (BioMarin Pharmaceutical Inc., priority 2016, published 2019) one finds IC50 data, which are given here for 21 molecules.

Counter-ions that a name gives are not always drawn.

The target in the test is T1, human CGT (ceramide galactosyltransferase), CHO/CGT lysate (Homo sapiens, UniProt Q16880).
T1 construct: Full-length human CGT cDNA was cloned into the BamH1/Xho1 site of pcDNA3.1 (+); expressed in transfected cells; host or cells: Chinese hamster ovary (CHO) cells; lysate prepared with M-PER
T1 sequence (Q16880 21-541): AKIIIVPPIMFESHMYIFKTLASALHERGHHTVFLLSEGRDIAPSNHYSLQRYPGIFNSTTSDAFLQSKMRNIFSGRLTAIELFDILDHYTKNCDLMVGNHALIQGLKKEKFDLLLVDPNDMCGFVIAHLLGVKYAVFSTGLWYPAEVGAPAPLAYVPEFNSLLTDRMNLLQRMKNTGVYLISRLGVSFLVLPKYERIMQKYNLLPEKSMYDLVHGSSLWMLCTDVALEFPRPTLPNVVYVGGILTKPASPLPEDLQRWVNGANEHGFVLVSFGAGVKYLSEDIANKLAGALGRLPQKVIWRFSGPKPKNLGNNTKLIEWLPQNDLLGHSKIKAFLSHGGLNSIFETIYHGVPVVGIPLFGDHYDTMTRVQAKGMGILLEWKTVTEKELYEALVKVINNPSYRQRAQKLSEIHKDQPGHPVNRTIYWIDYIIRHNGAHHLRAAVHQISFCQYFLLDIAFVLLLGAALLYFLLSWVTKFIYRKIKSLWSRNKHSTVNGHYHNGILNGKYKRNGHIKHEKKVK
Kind of test: CGT enzyme assay, RapidFire/MS/MS readout (Table 1 ranges with one asterisk *). The format is biochemical. The settings on record: RapidFire method (range with one asterisk *). The essentials: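 IC50s come from variable-slope dose-response fits of internal-standard-normalized C6-NBD-dihydro-galactosylceramide, measured by RapidFire/MS/MS (ESI negative). Reactions: 1 h, 37 °C, human CGT-expressing CHO lysate (4 μg), 0.001–50 μM compound, 10 μM NBD-dihydro-ceramide, 17.5 μM UDP-galactose, 0.5% DMSO, pH 7.2; 0.01% Tween 80 added for ** values.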
In general, IC50 refers to the concentration at which inhibition is half-maximal. High values mean a need for much substance, low ones inhibition by little substance. For the molecule `CC(C)N([C@H](C(=O)N1C2CCC1CC(N)C2)C(F)(F)c1ccc(Br)cc1)S(=O)(=O)c1ccc2cc(OC3CCCC3)ccc2c1` (stereo partly drawn) [Compound 76-1, N-((2R)-3-(3-amino-8-azabicyclo[3.2.1]octan-8-yl)-1-(4-bromophenyl)-1,1-difluoro-3-oxopropan-2-yl)-6-(cyclopentyloxy)-N-isopropylnaphthalene-2-sulfonamide], the IC50 lay in the range of 10 to 30 µM.

In turn, `CC(C)N([C@@H](C(=O)N1C2CCC1CC(N)C2)C(F)(F)c1ccc(Br)cc1)S(=O)(=O)c1ccc2cc(OC3CCCC3)ccc2c1` (stereo partly drawn) [Compound 76-2, N-((2S)-3-(3-amino-8-azabicyclo[3.2.1]octan-8-yl)-1-(4-bromophenyl)-1,1-difluoro-3-oxopropan-2-yl)-6-(cyclopentyloxy)-N-isopropylnaphthalene-2-sulfonamide] displayed an IC50 of 30 to 100 µM.

`NC1CC2CCC(C1)N2C(=O)[C@@H](NS(=O)(=O)c1ccc2nn(CC3CCCC3)cc2c1)C(F)(F)c1ccc(Br)cc1` (stereo partly drawn) [Compound 77-1, N-((2R)-3-(3-amino-8-azabicyclo[3.2.1]octan-8-yl)-1-(4-bromophenyl)-1,1-difluoro-3-oxopropan-2-yl)-2-(cyclopentylmethyl)-2H-indazole-5-sulfonamide] yielded an IC50 of 1 to 10 µM.

`NC1CC2CCC(C1)N2C(=O)[C@H](NS(=O)(=O)c1ccc2nn(CC3CCCC3)cc2c1)C(F)(F)c1ccc(Br)cc1` (stereo partly drawn) [Compound 77-2, N-((2S)-3-(3-amino-8-azabicyclo[3.2.1]octan-8-yl)-1-(4-bromophenyl)-1,1-difluoro-3-oxopropan-2-yl)-2-(cyclopentylmethyl)-2H-indazole-5-sulfonamide] had an IC50 of 30 to 100 µM.

With `CN([C@H](C(=O)N1C2CCC1CC(N)C2)C(F)(F)c1ccc(Br)cc1)S(=O)(=O)c1ccc2nn(CC3CCCC3)cc2c1` (stereo partly drawn) [Compound 78-1, N-((2R)-3-(3-amino-8-azabicyclo[3.2.1]octan-8-yl)-1-(4-bromophenyl)-1,1-difluoro-3-oxopropan-2-yl)-2-(cyclopentylmethyl)-N-methyl-2H-indazole-5-sulfonamide], the IC50 is 1 to 10 µM.

The molecule `CN([C@@H](C(=O)N1C2CCC1CC(N)C2)C(F)(F)c1ccc(Br)cc1)S(=O)(=O)c1ccc2nn(CC3CCCC3)cc2c1` (stereo partly drawn) [Compound 78-2, N-((2S)-3-(3-amino-8-azabicyclo[3.2.1]octan-8-yl)-1-(4-bromophenyl)-1,1-difluoro-3-oxopropan-2-yl)-2-(cyclopentylmethyl)-N-methyl-2H-indazole-5-sulfonamide] yielded an IC50 of 30 to 100 µM.

`CCCCOc1ccc(C(F)(F)[C@@H](C(=O)N2C3CCC2CC(N)C3)N(C)S(=O)(=O)c2ccc(OCC3CCCCC3)cc2)cc1` (stereo partly drawn) [Compound 79-1, N-((2R)-3-(3-amino-8-azabicyclo[3.2.1]octan-8-yl)-1-(4-butoxyphenyl)-1,1-difluoro-3-oxopropan-2-yl)-4-(cyclohexylmethoxy)-N-methylbenzenesulfonamide] came in with an IC50 of 1 to 10 µM.

In turn, `CCCCOc1ccc(C(F)(F)[C@H](C(=O)N2C3CCC2CC(N)C3)N(C)S(=O)(=O)c2ccc(OCC3CCCCC3)cc2)cc1` (stereo partly drawn) [Compound 79-2, N-((2S)-3-(3-amino-8-azabicyclo[3.2.1]octan-8-yl)-1-(4-butoxyphenyl)-1,1-difluoro-3-oxopropan-2-yl)-4-(cyclohexylmethoxy)-N-methylbenzenesulfonamide] showed an IC50 of 1 to 10 µM.

`CCCCOc1ccc(C(F)(F)[C@H](NS(=O)(=O)c2ccc3cc(OC4CCCC4)ccc3c2)C(=O)N2CCC(N)CC2)cc1` [Compound 80-1, (R)—N-(3-(4-aminopiperidin-1-yl)-1-(4-butoxyphenyl)-1,1-difluoro-3-oxopropan-2-yl)-6-(cyclopentyloxy)naphthalene-2-sulfonamide]: the IC50 is less than 1 µM.

`CCCCOc1ccc(C(F)(F)[C@@H](NS(=O)(=O)c2ccc3cc(OC4CCCC4)ccc3c2)C(=O)N2CCC(N)CC2)cc1` [Compound 80-2, (S)—N-(3-(4-aminopiperidin-1-yl)-1-(4-butoxyphenyl)-1,1-difluoro-3-oxopropan-2-yl)-6-(cyclopentyloxy)naphthalene-2-sulfonamide]: the IC50 was 1 to 10 µM.

In turn, `CCCCOc1ccc(C(F)(F)[C@H](NS(=O)(=O)c2ccc(OCC3CCCCC3)cc2)C(=O)N2CCC(N)CC2)cc1` [Compound 81-1, (R)—N-(3-(4-aminopiperidin-1-yl)-1-(4-butoxyphenyl)-1,1-difluoro-3-oxopropan-2-yl)-4-(cyclohexylmethoxy)benzenesulfonamide trifluoroacetate] displayed an IC50 of 1 to 10 µM.

In turn, `CCCCOc1ccc(C(F)(F)[C@@H](NS(=O)(=O)c2ccc(OCC3CCCCC3)cc2)C(=O)N2CCC(N)CC2)cc1` [Compound 81-2, (S)—N-(3-(4-aminopiperidin-1-yl)-1-(4-butoxyphenyl)-1,1-difluoro-3-oxopropan-2-yl)-4-(cyclohexylmethoxy)benzenesulfonamide trifluoroacetate] yielded an IC50 of 30 to 100 µM.

`CCCCOc1ccc(C(F)(F)[C@H](NS(=O)(=O)c2ccc3cc(OC4CCCC4)ccc3c2)C(=O)N2C3CCC2CC(N)C3)cc1` (stereo partly drawn) [Compound 82-1, N-((2R)-3-(3-amino-8-azabicyclo[3.2.1]octan-8-yl)-1-(4-butoxyphenyl)-1,1-difluoro-3-oxopropan-2-yl)-6-(cyclopentyloxy)naphthalene-2-sulfonamide trifluoroacetate] had a concentration for half-maximal inhibition (IC50) of less than 1 µM.

For `CCCCOc1ccc(C(F)(F)[C@@H](NS(=O)(=O)c2ccc3cc(OC4CCCC4)ccc3c2)C(=O)N2C3CCC2CC(N)C3)cc1` (stereo partly drawn) [Compound 82-2, N-((2S)-3-(3-amino-8-azabicyclo[3.2.1]octan-8-yl)-1-(4-butoxyphenyl)-1,1-difluoro-3-oxopropan-2-yl)-6-(cyclopentyloxy)naphthalene-2-sulfonamide trifluoroacetate], the half-inhibitory concentration (IC50) lay in the range of 1 to 10 µM.

`CCCCOc1cccc(C(F)(F)[C@H](NS(=O)(=O)c2ccc3cc(OC4CCCC4)ccc3c2)C(=O)N2CCC(N)CC2)c1` [Compound 83-1, (R)—N-(3-(4-aminopiperidin-1-yl)-1-(3-butoxyphenyl)-1,1-difluoro-3-oxopropan-2-yl)-6-(cyclopentyloxy)naphthalene-2-sulfonamide trifluoroacetate] had an IC50 of less than 1 µM.

As for `CCCCOc1cccc(C(F)(F)[C@@H](NS(=O)(=O)c2ccc3cc(OC4CCCC4)ccc3c2)C(=O)N2CCC(N)CC2)c1` [Compound 83-2, (S)—N-(3-(4-aminopiperidin-1-yl)-1-(3-butoxyphenyl)-1,1-difluoro-3-oxopropan-2-yl)-6-(cyclopentyloxy)naphthalene-2-sulfonamide trifluoroacetate], the half-maximal inhibitory concentration (IC50) is 1 to 10 µM.

In turn, `NC1CC2CCC(C1)N2C(=O)[C@@H](NS(=O)(=O)c1ccc(OCC2CCCCC2)cc1)C(F)(F)c1ccc(Oc2ccccc2)cc1` (stereo partly drawn) [Compound 84-1, N-((2R)-3-(3-amino-8-azabicyclo[3.2.1]octan-8-yl)-1,1-difluoro-3-oxo-1-(4-phenoxyphenyl)propan-2-yl)-4-(cyclohexylmethoxy)benzenesulfonamide] registered an IC50 of 1 to 10 µM.

Molecule `NC1CC2CCC(C1)N2C(=O)[C@H](NS(=O)(=O)c1ccc(OCC2CCCCC2)cc1)C(F)(F)c1ccc(Oc2ccccc2)cc1` (stereo partly drawn) [Compound 84-2, N-((2S)-3-(3-amino-8-azabicyclo[3.2.1]octan-8-yl)-1,1-difluoro-3-oxo-1-(4-phenoxyphenyl)propan-2-yl)-4-(cyclohexylmethoxy) benzenesulfonamide] displayed an IC50 of 10 to 30 µM.

In the case of `CN([C@H](C(=O)N1C2CCC1CC(N)C2)C(F)(F)c1ccc(Oc2ccccc2)cc1)S(=O)(=O)c1ccc(OCC2CCCCC2)cc1` (stereo partly drawn) [Compound 85-1, N-((2R)-3-(3-amino-8-azabicyclo[3.2.1]octan-8-yl)-1,1-difluoro-3-oxo-1-(4-phenoxyphenyl)propan-2-yl)-4-(cyclohexylmethoxy)-N-methylbenzene sulfonamide trifluoroacetate], the IC50 was 1 to 10 µM.

In turn, `CN([C@@H](C(=O)N1C2CCC1CC(N)C2)C(F)(F)c1ccc(Oc2ccccc2)cc1)S(=O)(=O)c1ccc(OCC2CCCCC2)cc1` (stereo partly drawn) [Compound 85-2, N-((2S)-3-(3-amino-8-azabicyclo[3.2.1]octan-8-yl)-1,1-difluoro-3-oxo-1-(4-phenoxyphenyl)propan-2-yl)-4-(cyclohexylmethoxy)-N-methylbenzenesulfonamide trifluoroacetate] gave an IC50 of 10 to 30 µM.

In turn, `NC1CC2CCC(C1)N2C(=O)[C@@H](NS(=O)(=O)c1ccc2cc(OC3CCCC3)ccc2c1)C(F)(F)c1ccc(Oc2ccccc2)cc1` (stereo partly drawn) [Compound 86-1, N-((2R)-3-(3-amino-8-azabicyclo[3.2.1]octan-8-yl)-1,1-difluoro-3-oxo-1-(4-phenoxyphenyl)propan-2-yl)-6-(cyclopentyloxy)naphthalene-2-sulfonamide trifluoroacetate] displayed an IC50 of less than 1 µM.
